Assay results published in US6124242A, “Herbicidal compositions and processes based on ferrodoxin:NADP reductase inhibitors” (BASF Aktiengesellschaft, priority 1998, dated 2000).

Legend:
[1] = molecular target: T1, ferredoxin:NADP reductase (Spinacia oleracea, UniProt P00455); assay: Inhibition of diaphorase reaction of ferredoxin:NADP reductase; type: biochemical, spinach
T1 construct: from spinach leaves--obtainable from Sigma, Germany; purchased Sigma, Germany; host or cells: spinach leaves
T1 sequence (P00455 56-369): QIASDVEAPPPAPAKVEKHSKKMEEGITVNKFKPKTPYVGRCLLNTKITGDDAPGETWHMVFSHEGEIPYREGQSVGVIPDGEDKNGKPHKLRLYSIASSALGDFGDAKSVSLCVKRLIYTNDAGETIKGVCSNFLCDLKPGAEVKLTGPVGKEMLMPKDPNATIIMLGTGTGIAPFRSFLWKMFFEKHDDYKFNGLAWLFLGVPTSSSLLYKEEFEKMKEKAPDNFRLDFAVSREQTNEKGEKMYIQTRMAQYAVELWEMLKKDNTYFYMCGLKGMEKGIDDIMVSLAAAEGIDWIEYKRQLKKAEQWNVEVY
Protocol: (§1) Ferredoxin:NADP reductase not only catalyzes the physiologically relevant, reversible reaction of NADP with ferrecoxin (ferredoxin reductase activity), but also the NADPH-dependent reduction of potassium hexacyanoferrate(III) (diaphorase activity). Methods for measuring these reactions are described in the literature (Meth. Enzymol., Volumes 23 and 69).
The diaphorase activity can be determined by incubating, for example, chloroplasts or isolated ferredoxin:NADP reductase (Sigma) in 100 mM Tris/HCl buffer, pH 8.2+0.5 mM potassium hexacyanoferrate(III)+0.5 mM NADPH or an NADPH-regenerating system such as, for example, 0.5 mM NADP+2.5 mM glucose-6-phosphate+1 unit/ml glucose-6-phosphate dehydrogenase at 25° C. and monitoring the decrease in absorption at 420 nm. An incubation mixture without ferredoxin:NADP reductase may be used as blank value.
(§2) The action of a test substance can be tested by dissolving the substance in a suitable solvent such as, for example, dimethyl sulfoxide and pipetting an aliquot of the solution to the above-described incubation mixture. A corresponding aliquot of the pure solvent may be used as control. The action of the test substance can be determined by comparing the absorption changes of the respective incubation batches.

[2] = molecular target: T1, ferredoxin:NADP reductase; assay: Inhibition of ferredoxin reductase reaction of ferredoxin:NADP reductase; type: biochemical, spinach; conditions: 1 mM
Protocol: as §1
The ferredoxin reductase activity can be determined by incubating, for example, chloroplast extracts or isolated ferredoxin:NADP reductase (Sigma) in 100 mM Tris/HCl buffer, pH 7.8+0.2 mM NADPH+0.65 mg/ml cytochrome C+0.1 mg/ml ferredoxin at 25° C. and measuring the change in the absorption at 550 nm, or the difference in absorption change at 550 nm and 540 nm. An incubation mixture without ferredoxin can be used as blank value.
as §2

[3] = system: duckweed Lemnna paucicostata; assay: Growth of duckweed (increase in leaf area); type: in vivo; conditions: leaf area after 8-10 days, read-out: Growth inhibition (% of the control); for inhibition at 100 µM: use concentration 10^-4 M; for inhibition at 10 µM: use concentration 10^-5 M; for inhibition at 1 µM: use concentration 10^-6 M
Protocol: The effect of the herbicidal compounds according to the invention on the growth of duckweed can be seen from the following test results: p The duckweed Lemnna paucicostata was grown under sterile conditions in 250 ml glass vessels containing 100 ml of inorganic nutrient solution supplemented with 1% sucrose, as described by Grossmann et al., Pesticide Science 35 (1992), 283-289. At the beginning of the test, 150 μl of a solution of active ingredient in acetone (stock solution: 100-fold concentrated) were pipetted into Petri dishes (diameter 6 cm, height 1.5 cm; Greiner, Frickenhausen) containing 15 ml of nutrient solution (without added sucrose). Only the solvent component of the active ingredient solution was added to the nutrient solution for the control tests. Then, 4 Lemna plants were introduced into each dish, the dishes were covered with lids and incubated in a controlled-environment cabinet at 25° C. under permanent light conditions (Phillips TL white neon tubes, approx. 40 μmol m^-2 s^-1; λ=400-750 nm). After 8-10 days, the increase in leaf area was determined using an imaging apparatus (Imago, Compulog Computer Syst., Boblingen) as growth parameter, and this was used to calculate the % growth inhibition relative to the control.

## CCCCCCCCCCCCCCCCS(=O)(=O)c1ccc(S(=O)(=O)O)cc1C(=O)NN=c1sc2ccc(S(=O)(=O)O)cc2n1C [B.3]
[1]
  inhibition at 50 µM: 102%
[1]; 50 μM, mean +/- standard deviation of 6 experiments, control (DMSO) 31.3, blank without enzyme 9.4
  AU/min *10^-3 (diaphorase reaction, decrease in absorption at 420 nm): 9.0 +/- 1.4 AU/min *10^-3
[2]
  inhibition at 1000 µM: 90%
[2]; mean +/- standard deviation of 6 experiments, control (DMSO) 0.692, blank without ferredoxin 0.027
  E (550 -540) (ferredoxin reductase reaction): 0.093 +/- 0.026
[3]
  inhibition at 100 µM: 96%
  inhibition at 10 µM: 66%
  inhibition at 1 µM: 54%

## CCCCCCCCCCCCCCCCS(=O)(=O)c1ccc(S(=O)(=O)NN=c2sc3cc(S(=O)(=O)O)ccc3n2C)cc1NC(C)=O [A.46]
[3]
  inhibition at 100 µM: 56%
  inhibition at 10 µM: 33%
  inhibition at 1 µM: 13%

## CCCCCCCCCCCCCCCCNS(=O)(=O)c1ccc(S(=O)(=O)NN=c2sc3ccc(S(=O)(=O)O)cc3n2C)cc1 [A.52]
[3]
  inhibition at 100 µM: 89%
  inhibition at 10 µM: 12%

## CCCCCCCCCCCCCCCCS(=O)(=O)N(C)c1cccc(S(=O)(=O)NN=c2sc3ccc(S(=O)(=O)O)cc3n2C)c1 [A.48]
[3]
  inhibition at 100 µM: 42%
  inhibition at 10 µM: 34%
  inhibition at 1 µM: 28%

## CCCCCCCCCCCCCCCCOc1ccc(C(=O)O)cc1S(=O)(=O)NN=c1sc2ccc(S(=O)(=O)O)cc2n1C [A.28]
[3]
  inhibition at 100 µM: 60%
  inhibition at 10 µM: 42%
  inhibition at 1 µM: 26%

## CCCCCCCCCCCCCCCCNS(=O)(=O)c1ccc(S(=O)(=O)NN=c2sc3ccc(S(=O)(=O)C(F)F)cc3n2C)cc1 [A.55]
[3]
  inhibition at 100 µM: 28%

## CCCCCCCCCCCCCCCCS(=O)(=O)c1ccc(S(=O)(=O)NN=c2sc3ccc(S(=O)(=O)O)cc3n2C)cc1C(=O)O [A.49]
[3]
  inhibition at 100 µM: 77%
  inhibition at 10 µM: 49%
  inhibition at 1 µM: 19%

## CCCCCCCCCCCCCCCCNS(=O)(=O)c1ccc(S(=O)(=O)NN=c2sc3ccccc3n2C)cc1 [A.51]
[3]
  inhibition at 100 µM: 29%

## CCCCCCCCCCCCCCCCS(=O)(=O)Nc1cccc(S(=O)(=O)NN=c2sc3ccc(S(=O)(=O)C(F)F)cc3n2C)c1 [A.47]
[3]
  inhibition at 100 µM: 18%
